How the values were obtained:
Experiment in all cases: MTT cell growth assay
Format in all cases: cell-based, human
Conditions in all cases: equimolecular concentrations of LiCl, NaCl, KCl, three days
LNCaP cells = system: LNCaP cells
Description: (§1) For MTT-based cell growth assays, cells seeded in 96-well plates were serum-starved for 48 hours, and were then treated with vehicle or different reagents for different time periods as indicated in the figures. MTT assay were carried out using a pre-assembled kit (Sigma) according to the manufacturer's manual.
(§2) To rule out the eventual intervention of the chloride anion and the osmotic disturbance, the effect of LiCl was compared with sodium chloride (“NaCl”) and potassium chloride (“KCl”) at equimolecular concentrations in both LNCaP and PC-3 cell lines. In addition, the androgen-insensitive C4-2 cell line was included. To easily handle the experiments while multiple comparisons were taken in place, a MTT assay was used to assess cell growth.
Lastly, two GSK-3β-specific small chemical inhibitors, SB216763 and BIO, were used to verify that LiCl-induced suppression of cell growth is due to GSK-3β inhibition. LNCaP cells were seeded as above and then treated with increasing doses of the inhibitors in a full culture medium. Cell growth was assessed three days later by MTT assay.

PC-3 cells = system: PC-3 cells
Description: as §1, §2

C4-2 cells = system: C4-2 cells
Description: as §1, §2

Measured: cell growth inhibition (MTT)

[Cl-].[Li+] [LiCl, Lithium chloride]
dramatic inhibition: all assays above
